Measured values as given in patent US8247431B2, “Heterocyclic hydrazide compound and pesticidal use of the same” (Sumitomo Chemical Company, Limited, priority 2007, dated 2012).

Experiments:
Assay type in all cases: in vivo
[1] = tested on: diamondback moths (Plutella xylostella); experiment: Test Example 1: spray on cabbage, third-instar larvae of diamondback moths; conditions: 20 ml/cup spray on cabbage, 10 third-instar larvae, counted after 5 days; for pest or weed control at 500 ppm: Plutella xylostella, 120 h, 500 ppm active ingredient, read-out: controlling value; for control value: 0.2 ppm active ingredient
Description: Then, it will be shown by Test Examples that the present compound is effective in controlling harmful arthropods. In the Test Example, controlling values were calculated by the following equation: Controlling value(%)={1−(Cb×Tai)/(Cai×Tb)}×100 wherein Cb: the number of worms in a non-treated section before treatment Cai: the number of worms in a non-treated section on observation Tb: the number of worms in a treated-section before treatment Tai: the number of worms in a treated-section on observation. Preparations of the test compounds obtained in Formulation Example 5 were diluted with water so that the active ingredient concentration became 500 ppm, to prepare test spray solutions. At the same time, cabbage was planted in a polyethylene cup, and grown until the third true leaf or the fourth true leaf was developed. The test spray solution as described above was sprayed in an amount of 20 ml/cup on the cabbage. After the spray solution on the cabbage was dried, 10 third-instar larvae of diamondback moths (Plutella xylostella) were put on the cabbage. After 5 days, the number of diamondback moths was counted, and the controlling value was calculated by the above equation. Furthermore, preparations of the test compound (7) and a comparative compound of the formula [drawing 523] obtained in a formulation according to Formulation Example 5 were diluted with water so that the active ingredient concentration became 0.2 ppm, to prepare test spray solution. At the same time, cabbage was planted in a polyethylene cup, and grown until the third true leaf or the fourth true leaf was developed. The test spray solution as described above was sprayed in an amount of 20 ml/cup on the cabbage. After the spray solution on the cabbage was dried, 10 third-instar larvae of diamondback moths (Plutella xylostella) were put on the cabbage. After 5 days, the number of diamondback moths was counted, and the controlling value was calculated by the above equation.

[2] = tested on: cotton aphids (Aphis gossypii); experiment: Test Example 2: spray on cucumber infested with cotton aphids; conditions: topical, 144 h, 500 ppm active ingredient, 20 ml/cup spray on cucumber, about 30 aphids, counted six days after spraying, read-out: controlling value
Description: Then, it will be shown by Test Examples that the present compound is effective in controlling harmful arthropods. In the Test Example, controlling values were calculated by the following equation: Controlling value(%)={1−(Cb×Tai)/(Cai×Tb)}×100 wherein Cb: the number of worms in a non-treated section before treatment Cai: the number of worms in a non-treated section on observation Tb: the number of worms in a treated-section before treatment Tai: the number of worms in a treated-section on observation. Preparations of the test compounds obtained in Formulation Example 5 were diluted with water so that the active ingredient concentration became 500 ppm to prepare test spray solutions. At the same time, cucumber was planted in a polyethylene cup, and was grown until the first true leaf was developed. About 30 cotton aphids were put on the cucumber. One day after, the test spray solution as described above was sprayed in an amount of 20 ml/cup on the cucumber. Six days after spraying, the number of cotton aphids (Aphis gossypii) was counted, and a controlling value was calculated by the above equation.

Spodoptera litura = experiment: Test Example 3: spray on cabbage, fourth-instar larvae of Spodoptera litura; conditions: 120 h, 500 ppm active ingredient, 20 ml/cup spray on cabbage, 10 fourth-instar larvae, counted after 5 days, read-out: controlling value
Description: Then, it will be shown by Test Examples that the present compound is effective in controlling harmful arthropods. In the Test Example, controlling values were calculated by the following equation: Controlling value(%)={1−(Cb×Tai)/(Cai×Tb)}×100 wherein Cb: the number of worms in a non-treated section before treatment Cai: the number of worms in a non-treated section on observation Tb: the number of worms in a treated-section before treatment Tai: the number of worms in a treated-section on observation. Preparations of the test compounds obtained in Formulation Example 5 were diluted with water so that the active ingredient concentration became 500 ppm to prepare test spray solutions. At the same time, cabbage was planted in a polyethylene cup, and grown until the third true leaf or the fourth true leaf was developed. The test spray solution as described above was sprayed in an amount of 20 ml/cup on the cabbage. After the spray solution sprayed on the cabbage was dried, 10 fourth-instar larvae of Spodoptera litura were put on the cabbage. After 5 days, the number of Spodoptera litura surviving on the cabbage leaves was counted, and a controlling value was calculated by the above equation.

[3] = tested on: Adoxophyes orana fasciata; experiment: Test Example 4: spray on apple seedling, first-instar larvae of Adoxophyes orana fasciata; conditions: 168 h, 500 ppm active ingredient, 20 ml spray on apple seedling, about 30 first-instar larvae, counted seven days after spraying, read-out: controlling value
Description: Then, it will be shown by Test Examples that the present compound is effective in controlling harmful arthropods. In the Test Example, controlling values were calculated by the following equation: Controlling value(%)={1−(Cb×Tai)/(Cai×Tb)}×100 wherein Cb: the number of worms in a non-treated section before treatment Cai: the number of worms in a non-treated section on observation Tb: the number of worms in a treated-section before treatment Tai: the number of worms in a treated-section on observation. Preparations of the test compounds obtained in Formulation Example 5 were diluted with water so that the active ingredient concentration became 500 ppm to prepare test spray solutions. At the same time, 20 ml of the test spray solution as described above was sprayed to an apple seedling (28 day-old seeding, tree height: about 15 cm) planted in a plastic cup. The apple seedling was air-dried to such an extent that the spray solution sprayed on the apple seedling was dried. About 30 first-instar larvae of Adoxophyes orana fasciata were released. Seven days after spraying, the number of worms surviving on the apple seedling was counted, and a controlling value was calculated by the above equation.

Compound | pest or weed control at 500 ppm [1] [%] | pest or weed control at 500 ppm [2] [%] | pest or weed control at 500 ppm (Spodoptera litura) [%] | pest or weed control at 500 ppm [3] [%] | control value [1]
COC(=O)NNC(=O)c1cc(Cl)nc(Cl)c1NC(=O)c1cc(Br)nn1-c1ncccc1Cl [Compound 1, N′-(3-{[5-bromo-2-(3-chloro-pyridin-2-yl)-2H-pyrazole-3-carbonyl]-amino}-2,6-dichloro-pyridine-4-carbonyl)-hydrazinecarboxylic acid methyl ester] | ≥ 90 | ≥ 90 | ≥ 80 | ≥ 90 | 
COC(=O)NNC(=O)c1cc(Cl)nc(Cl)c1NC(=O)c1cc(C(F)(F)F)nn1-c1ncccc1Cl [Compound 2, N′-(2,6-dichloro-3-{[2-(3-chloro-pyridin-2-yl)-5-trifluoromethyl-2H-pyrazole-3-carbonyl]-amino}-pyridine-4-carbonyl)-hydrazinecarboxylic acid methyl ester] | ≥ 90 | ≥ 90 |  | ≥ 90 | 
COC(=O)NNC(=O)c1cc(Cl)nc(C)c1NC(=O)c1cc(Br)nn1-c1ncccc1Cl [Compound 3, N′-(3-{[5-bromo-2-(3-chloro-pyridin-2-yl)-2H-pyrazole-3-carbonyl]-amino}-6-chloro-2-methyl-pyridine-4-carbonyl)-hydrazinecarboxylic acid methyl ester] | ≥ 90 | ≥ 90 | ≥ 80 | ≥ 90 | 
COC(=O)NNC(=O)c1cc(Cl)nc(Br)c1NC(=O)c1cc(Br)nn1-c1ncccc1Cl [Compound 4, N′-(2-bromo-3-{[5-bromo-2-(3-chloro-pyridin-2-yl)-2H-pyrazole-3-carbonyl]-amino}-6-chloro-pyridine-4-carbonyl)-hydrazinecarboxylic acid methyl ester] | ≥ 90 | ≥ 90 | ≥ 80 | ≥ 90 | 
COC(=O)NNC(=O)c1cc(Br)nc(Br)c1NC(=O)c1cc(Br)nn1-c1ncccc1Cl [Compound 5, N′-(2,6-dibromo-3-{[5-bromo-2-(3-chloro-pyridin-2-yl)-2H-pyrazole-3-carbonyl]-amino}-pyridine-4-carbonyl)-hydrazinecarboxylic acid methyl ester] | ≥ 90 | ≥ 90 | ≥ 80 | ≥ 90 | 
COC(=O)NNC(=O)c1nc(Cl)cc(C)c1NC(=O)c1cc(Br)nn1-c1ncccc1Cl [Compound 7, N′-(3-{[5-bromo-2-(3-chloro-pyridin-2-yl)-2H-pyrazole-3-carbonyl]-amino}-6-chloro-4-methyl-pyridine-2-carbonyl)-hydrazinecarboxylic acid methyl ester] | ≥ 90 | ≥ 90 | ≥ 80 | ≥ 90 | more than 80%
COC(=O)N(C)NC(=O)c1nc(Cl)cc(C)c1NC(=O)c1cc(Br)nn1-c1ncccc1Cl [Compound 8, N′-(3-{[5-bromo-2-(3-chloro-pyridin-2-yl)-2H-pyrazole-3-carbonyl]-amino}-6-chloro-4-methyl-pyridine-2-carbonyl)-N-methyl-hydrazinecarboxylic acid methyl ester] | ≥ 90 | ≥ 90 | ≥ 80 | ≥ 90 | 
COC(=O)N(C)N(C)C(=O)c1nc(Cl)cc(C)c1NC(=O)c1cc(Br)nn1-c1ncccc1Cl [Compound 9, N′-(3-{[5-bromo-2-(3-chloro-pyridin-2-yl)-2H-pyrazole-3-carbonyl]-amino}-6-chloro-4-methyl-pyridine-2-carbonyl)-N,N′-dimethyl-hydrazinecarboxylic acid methyl ester] | ≥ 90 | ≥ 90 | ≥ 80 |  | 
CCN(NC(=O)c1nc(Cl)cc(C)c1NC(=O)c1cc(Br)nn1-c1ncccc1Cl)C(=O)OC [Compound 10, N′-(3-{[5-bromo-2-(3-chloro-pyridin-2-yl)-2H-pyrazole-3-carbonyl]-amino}-6-chloro-4-methyl-pyridine-2-carbonyl)-N-ethyl-hydrazinecarboxylic acid methyl ester] | ≥ 90 | ≥ 90 | ≥ 80 |  | 
CCN(NC(=O)OC)C(=O)c1nc(Cl)cc(C)c1NC(=O)c1cc(Br)nn1-c1ncccc1Cl [Compound 11, N′-(3-{[5-bromo-2-(3-chloro-pyridin-2-yl)-2H-pyrazole-3-carbonyl]-amino}-6-chloro-4-methyl-pyridine-2-carbonyl)-N′-ethyl-hydrazine carboxylic acid methyl ester] | ≥ 90 | ≥ 90 | ≥ 80 |  | 
CCN(NC(=O)OC)C(=O)c1nc(Br)cc(Br)c1NC(=O)c1cc(Br)nn1-c1ncccc1Cl [Compound 16, N′-(4,6-dibromo-3-{[5-bromo-2-(3-chloro-pyridin-2-yl)-2H-pyrazole-3-carbonyl]-amino}-pyridine-2-carbonyl)-N′-ethyl-hydrazinecarboxylic acid methyl ester] | ≥ 90 | ≥ 90 | ≥ 80 |  | 
COC(=O)NNC(=O)c1cccnc1NC(=O)c1cc(C(F)(F)F)nn1-c1ncccc1Cl [Compound 17, N′-(2-{[2-(3-chloro-pyridin-2-yl)-5-trifluoromethyl-2H-pyrazole-3-carbonyl]-amino}-pyridine-3-carbonyl)-hydrazinecarboxylic acid methyl ester] | ≥ 90 |  | ≥ 80 |  | 
COC(=O)NNC(=O)c1scc(C)c1NC(=O)c1cc(Br)nn1-c1ncccc1Cl [Compound 18, N′-(3-{[5-bromo-2-(3-chloro-pyridin-2-yl)-2H-pyrazole-3-carbonyl]-amino}-4-methyl-thiophene-2-carbonyl)-hydrazinecarboxylic acid methyl ester] |  | ≥ 90 |  |  | 
COC(=O)NNC(=O)c1cnn(C)c1NC(=O)c1cc(Br)nn1-c1ncccc1Cl [Compound 19, N′-(5-{[5-bromo-2-(3-chloro-pyridin-2-yl)-2H-pyrazole-3-carbonyl]-amino}-1-methyl-1H-pyrazole-4-carbonyl)-hydrazinecarboxylic acid methyl ester] | ≥ 90 | ≥ 90 |  | ≥ 90 | 
Cc1cc(Cl)nc(C(=O)NN(C)C)c1NC(=O)c1cc(Br)nn1-c1ncccc1Cl [reference compound] |  |  |  |  | less than 80%
